What was measured:
Assay type in all cases: in vivo, human
[1] = MARINE: plasma fatty acid concentrations, ratios and class proportions (GC/FID); settings: for Mono-unsaturated, proportion to total fatty acids, Mean placebo-adjusted percent change from baseline / Total omega-6, proportion to total fatty acids, Mean placebo-adjusted percent change from baseline / Saturated, proportion to total fatty acids, Mean placebo-adjusted percent change from baseline / Total omega-3, proportion to total fatty acids, Mean placebo-adjusted percent change from baseline: Plasma; for Palmitic Mean placebo-adjusted percent change from baseline / Oleic Mean placebo-adjusted percent change from baseline / Stearic Mean placebo-adjusted percent change from baseline / Linoleic Mean placebo-adjusted percent change from baseline / DHA Mean placebo-adjusted percent change from baseline / AA Mean placebo-adjusted percent change from baseline / DPAn-3 Mean placebo-adjusted percent change from baseline: plasma, week 12
Protocol: A multi-center, placebo-controlled randomized, double-blind, 12-week study with an open-label extension is performed to evaluate the efficacy and safety of AMR101 in patients with fasting triglyceride levels≥500 mg/dL. The primary objective of the study is to determine the efficacy of AMR101 2 g daily and 4 g daily, compared to placebo, in lowering fasting TG levels in patients with fasting TG levels≥500 mg/dL and ≤1500 mg/dL (≥5.65 mmol/L and ≤16.94 mmol/L).
Eligible patients will be randomly assigned at Visit 4 (Week 0) to receive orally AMR101 2 g daily, AMR101 4 g daily, or placebo for the 12-week double-blind treatment period. AMR101 is provided in 1 g liquid-filled, oblong, gelatin capsules. The matching placebo capsule is filled with light liquid paraffin and contains 0 g of AMR101. During the double-blind treatment period, patients will take 2 capsules (AMR101 or matching placebo) in the morning and 2 in the evening for a total of 4 capsules per day. Patients in the AMR101 2 g/day treatment group will receive 1 AMR101 1 g capsule and 1 matching placebo capsule in the morning and in the evening. Patients in the AMR101 4 g/day treatment group will receive 2 AMR101 1 g capsules in the morning and evening.
Lipids were extracted from plasma and RBC suspensions and converted into fatty acid methyl esters for analysis using a standard validated gas chromatography/flame ionization detection method. Fatty acid parameters were compared between EPA treatment groups and placebo using an ANCOVA model with treatment, gender, type of statin therapy, and presence of diabetes as factors, and the baseline parameter value as a covariate. LSMs, SEs, and 2-tailed 95% confidence intervals for each treatment group and for each comparison were determined.
The monounsaturated fatty acid group included myristoleic, palmitoleic, cis-vaccenic, oleic, gondoic/gadoleic, erucic and nervonic acids. The saturated fatty acid group included myristic, palmitic, stearic, arachidic, behenic and lignoceric acids. The “total omega-3” group included α-linolenic, stearidonic, eicosatrienoic, ω-3 arachidonic, eicosapentaenoic, ω-3 docosapentaenoic and docosahecaenoic acids. The “total omega-6” group included linoleic, γ-linolenic, eicosadienoic, dihomo-γ-linolenic, ω-6 arachidonic, adrenic, and ω-6 docosapentaenoic acids. The “total fatty acid” group represented the sum of the monounsaturated, saturated, total omega-3 and total omega-6 groups.

[2] = Phase 1 multidose pharmacokinetic study: safety and tolerability; settings: all groups
From the text: The safety population was defined as all randomized subjects who received at least one dose of study drug. The per-protocol population was defined as all safety population subjects who completed the 28-day treatment period without any major protocol deviations, and who provided blood samples for EPA analyses.
Safety assessments consisted of adverse event (AE) monitoring, clinical laboratory measurements (chemistry, hematology, and urinalysis) 12-lead electrocardiographic measurements, vital signs (systolic and diastolic blood pressure, heart rate, respiratory rate, and oral body temperature) and physical examination findings.

fasting TG levels = experiment: ANCHOR: fasting TG lowering and LDL-C; settings: for median percent reductions in TG from baseline, 4 g/day compared with 2 g/day: 12 weeks
Protocol: A multi-center, placebo-controlled, randomized, double-blind, 12-week study was performed to evaluate the efficacy and safety of >96% E-EPA in patients with fasting triglyceride levels≥200 mg/dl and <500 mg/dl despite statin therapy (the mean of two qualifying entry values needed to be ≥185 mg/dl and at least one of the values needed to be ≥200 mg/dl). The primary objective of the study was to determine the efficacy of >96% E-EPA 2 g daily and 4 g daily, compared to placebo, in lowering fasting TG levels in patients with high risk for cardiovascular disease and with fasting TG levels≥200 mg/dL and <500 mg/dL, despite treatment to LDL-C goal on statin therapy.
The primary efficacy variable for the double-blind treatment period was percent change in TG from baseline to Week 12 endpoint. The secondary efficacy variables for the double-blind treatment period included the following: • Percent changes in total cholesterol (TC), high-density lipoprotein cholesterol (HDL-C), LDL-C, calculated non-HDL-C, and very low-density lipoprotein cholesterol (VLDL-C) from baseline to Week 12 endpoint; • Percent change in very low-density lipoprotein TG from baseline to Week 12; • Percent changes in apolipoprotein A-I (apo A-I), apolipoprotein B (apo B), and apo A-I/apo B ratio from baseline to Week 12; • Percent changes in lipoprotein(a) from baseline to Week 12; • Percent changes in LDL particle number and size, measured by nuclear magnetic resonance, from baseline to Week 12; • Percent change in remnant-like particle cholesterol from baseline to Week 12; • Percent change in oxidized LDL from baseline to Week 12; • Changes in FPG and HbA1c from baseline to Week 12; • Change in insulin resistance, as assessed by the homeostasis model index insulin resistance, from baseline to Week 12; • Percent change in lipoprotein associated phospholipase A2 (Lp-PLA2) from baseline to Week 12; • Change in intracellular adhesion molecule-1 from baseline to Week 12; • Change in interleukin-2 from baseline to Week 12; • Change in plasminogen activator inhibitor-1 from baseline to Week 12. Note: this parameter will only be collected at sites with proper storage conditions; • Change in hsCRP from baseline to Week 12; and • Change in plasma concentration and red blood cell membrane content of fatty acid from baseline to Week 12 including EPA, docosapentaenoic acid (DPA), docosahexaenoic acid (DHA), arachidonic acid (AA), dihomo-γ-linolenic acid (DGLA), the ratio of EPA/AA, ratio of oleic acid/stearic acid (OA/SA), and the ratio of total omega-3 acids over total omega-6 acids.
The primary efficacy analysis was performed using a 2-way analysis of covariance (ANCOVA) model with treatment as a factor and baseline TG value as a covariate. […]

[3] = IPE 2 g/day vs placebo, P <0.0001
[4] = IPE 4 g/day vs placebo, P <0.0001

Compound: CC/C=C\C/C=C\C/C=C\C/C=C\C/C=C\CCCC(=O)OCC [IPE, all-cis eicosa-5,8,11,14,17-pentaenoic acid ethyl ester]
- Mono-unsaturated, proportion to total fatty acids, Mean placebo-adjusted percent change from baseline ([1]; IPE 2 g/day vs placebo, P 0.0009): −7.4%
- Total omega-6, proportion to total fatty acids, Mean placebo-adjusted percent change from baseline ([1]; IPE 2 g/day vs placebo, P 0.3044): 3.2%
- Saturated, proportion to total fatty acids, Mean placebo-adjusted percent change from baseline ([1]; IPE 2 g/day vs placebo, P 0.8076): −0.4%
- Total omega-3, proportion to total fatty acids, Mean placebo-adjusted percent change from baseline [1, 3]: 68.4%
- Mono-unsaturated, proportion to total fatty acids, Mean placebo-adjusted percent change from baseline ([1]; IPE 4 g/day vs placebo, P 0.0008): −7.7%
- Saturated, proportion to total fatty acids, Mean placebo-adjusted percent change from baseline ([1]; IPE 4 g/day vs placebo, P 0.1049): −2.8%
- Total omega-6, proportion to total fatty acids, Mean placebo-adjusted percent change from baseline ([1]; IPE 4 g/day vs placebo, P 0.8846): 0.5%
- Total omega-3, proportion to total fatty acids, Mean placebo-adjusted percent change from baseline [1, 4]: 132.7%
- Palmitic Mean placebo-adjusted percent change from baseline ([1]; IPE 2 g/day vs placebo, P 0.0011): −23.9%
- Oleic Mean placebo-adjusted percent change from baseline ([1]; IPE 2 g/day vs placebo, P 0.0023): −23.8%
- Stearic Mean placebo-adjusted percent change from baseline ([1]; IPE 2 g/day vs placebo, P 0.0040): −20.7%
- Linoleic Mean placebo-adjusted percent change from baseline ([1]; IPE 2 g/day vs placebo, P 0.0136): −15.2%
- DHA Mean placebo-adjusted percent change from baseline ([1]; IPE 2 g/day vs placebo, P 0.7217): −2.3%
- AA Mean placebo-adjusted percent change from baseline [1, 3]: −16.4%
- DPAn-3 Mean placebo-adjusted percent change from baseline [1, 3]: 107.2%
- Oleic Mean placebo-adjusted percent change from baseline ([1]; IPE 4 g/day vs placebo, P 0.0001): −31.9%
- Stearic Mean placebo-adjusted percent change from baseline ([1]; IPE 4 g/day vs placebo, P 0.0002): −28.4%
- Linoleic Mean placebo-adjusted percent change from baseline ([1]; IPE 4 g/day vs placebo, P 0.0003): −23.7%
- DHA Mean placebo-adjusted percent change from baseline ([1]; IPE 4 g/day vs placebo, P 0.7115): 2.4%
- AA Mean placebo-adjusted percent change from baseline [1, 4]: −26.8%
- DPAn-3 Mean placebo-adjusted percent change from baseline [1, 4]: 150.8%
- Palmitic Mean placebo-adjusted percent change from baseline [1, 4]: −34.4%
- changes in laboratory, electrocardiographic, or physical examination findings [2]: no clinically meaningful changes
- intensity of adverse events [2]: mild or moderate in intensity
- effect on LDL-C (fasting TG levels): without raising LDL-C
- median percent reductions in TG from baseline, 4 g/day compared with 2 g/day (fasting TG levels): higher with IPE 4 g/day than with 2 g/day
- median percent reductions in TG from baseline, 4 g/day compared with 2 g/day (fasting TG levels; listed as EPA): higher for subjects administered about 4 grams of EPA per day
- effect on TG levels (fasting TG levels; patients with high TG levels on statin therapy): significantly reduced TG levels
